Measurements reported in ChEMBL document CHEMBL1128151, “Synthesis and bioactivities of heterocyclic lipids as PAF antagonists. 2” (Bioorg Med Chem Lett, 1995).

Tests used:
Cavia porcellus [1] = assay: In vivo PAF-induced bronchoconstriction in guinea pigs at a dose of 0.01 mg/kg; assay type: functional
Cavia porcellus [2] = assay: In vivo inhibitory activity against platelet aggregation in guinea pigs; assay type: functional, organism-based
Mus musculus [3] = assay: Survival ratio of ICR mice by the administration (0.3 mg/kg) along with endotoxin (55mg/Kg, ip) after 18 h; assay type: functional
Mus musculus [4] = assay: Survival ratio of ICR mice by the administration (0.3 mg/kg) along with endotoxin (55mg/Kg, ip) after 1 hr; assay type: functional
Mus musculus [5] = assay: Survival ratio of ICR mice by the administration (0.3 mg/kg) along with endotoxin (55mg/Kg, ip) after 42h; assay type: functional
Mus musculus [6] = assay: Survival ratio of ICR mice by the administration (0.3 mg/kg) along with endotoxin (55mg/Kg, ip) after 66h; assay type: functional
Mus musculus [7] = assay: Survival ratio of ICR mice by the administration (0.3 mg/kg) along with endotoxin (55mg/Kg, ip) after 24 hr; assay type: functional
Mus musculus [8] = assay: Survival ratio of ICR mice by the administration (0.3 mg/kg) along with endotoxin (55mg/Kg, ip) after 2 hr; assay type: functional
Mus musculus [9] = assay: Survival ratio of ICR mice by the administration (0.3 mg/kg) along with endotoxin (55mg/Kg, ip) after 48 hr; assay type: functional
Rattus norvegicus = assay: In vivo inhibitory activity against PAF-induced hypertension in SD rats by ip administration; assay type: functional
Cavia porcellus [10] = assay: In vivo inhibitory activity against PAF-induced bronchoconstriction in guinea pigs at a dose of 0.01 mg/kg; assay type: functional
Mus musculus [11] = assay: In vivo inhibitory activity (1 mg/kg) against endotoxin-induced hemoconcentration in ICR mice with endotoxin concentration of 55 mg/kg; assay type: functional
[12] = In vitro inhibitory activity against PAF-induced aggregation of rabbit platelets

| Structure (SMILES) | Absolute (Cavia porcellus [1]) [%] | ED50 (Rattus norvegicus) [mg/kg] | inhibition in vivo at 0.01 mg/kg (Cavia porcellus [10]) [%] | Change (Mus musculus [11]) [%] | Change of hemoconcentration (Mus musculus [11]) | further results |
| --- | --- | --- | --- | --- | --- | --- |
| CCCCCCCCCCCCCCCCNC(=O)OC[C@@H]1C[C@@H](COC(=O)N(Cc2cccc[n+]2CC)C(C)=O)S1.[Cl-] | 7 | 0.16 | 92 | – | – | IC50 (Cavia porcellus [2]): 21 nM; Survival ratio (Mus musculus [3]): 80; Survival ratio (Mus musculus [4]): 100; Survival ratio (Mus musculus [5]): 60; Survival ratio (Mus musculus [6]): 60; Survival ratio (Mus musculus [7]): 73; Survival ratio (Mus musculus [8]): 100; Survival ratio (Mus musculus [9]): 60 |
| CCCCCCCCCCCCCCCCCCNC(=O)OC[C@H]1C[C@H](COC(=O)N(Cc2cccc[n+]2CC)C(C)=O)C1.[I-] | 12 | 0.58 | 87 | – | – | IC50 (Cavia porcellus [2]): 56 nM; Survival ratio (Mus musculus [3]): 80; Survival ratio (Mus musculus [4]): 100; Survival ratio (Mus musculus [5]): 40; Survival ratio (Mus musculus [6]): 27; Survival ratio (Mus musculus [7]): 73; Survival ratio (Mus musculus [8]): 100; Survival ratio (Mus musculus [9]): 33 |
| CCCCCCCCCCCCCCCCCCNC(=O)OC[C@H]1C[C@H](COC(=O)N(Cc2cccc[n+]2CC)C(C)=O)O1.[I-] | 7 | 0.28 | 92 | – | – | – |
| CCCCCCCCCCCCCCCCCCNC(=O)OC[C@H]1C[C@H](COC(=O)N(Cc2cccc[n+]2CC)C(C)=O)N1C(C)=O.[Cl-] | 5 | 0.33 | 95 | – | – | IC50 (Cavia porcellus [2]): 29 nM; Survival ratio (Mus musculus [3]): 73; Survival ratio (Mus musculus [4]): 100; Survival ratio (Mus musculus [5]): 53; Survival ratio (Mus musculus [6]): 53; Survival ratio (Mus musculus [7]): 73; Survival ratio (Mus musculus [8]): 100; Survival ratio (Mus musculus [9]): 53 |
| CCCCCCCCCCCCCC(=O)OC(CCCCCCCCCCC)CC(=O)O[C@@H]1[C@@H](NC(=O)CC(CCCCCCCCCCC)OC(=O)CCCCCCCCCCC)[C@H](O[C@@H]2C[C@H](OC(=O)CC(O)CCCCCCCCCCC)[C@@H](NC(=O)CC(O)CCCCCCCCCCC)[C@@H](O)O2)O[C@H](CO)[C@H]1OP(=O)(O)O.CCCCCCCCCCCCCCCCCCNC(=O)OC[C@H]1C[C@H](COC(=O)N(Cc2cccc[n+]2CC)C(C)=O)C1.[I-] (stereo partly specified) | – | – | – | 25 | 5.9 | – |
| CCCCCCCCCCCCCC(=O)OC(CCCCCCCCCCC)CC(=O)OC1C(NC(=O)CC(CCCCCCCCCCC)OC(=O)CCCCCCCCCCC)C(OC2CC(OC(=O)CC(O)CCCCCCCCCCC)C(NC(=O)CC(O)CCCCCCCCCCC)C(O)O2)OC(CO)C1OP(=O)(O)O.CCCCCCCCCCCCCCCCCCNC(=O)OC[C@@H]1C[C@@H](COC(=O)N(Cc2cccc[n+]2CC)C(C)=O)N1C(C)=O.[Cl-] (stereo unspecified) | – | – | – | 55 | 13.1 | – |
| CCCCCCCCCCCCCC(=O)OC(CCCCCCCCCCC)CC(=O)OC1C(NC(=O)CC(CCCCCCCCCCC)OC(=O)CCCCCCCCCCC)C(OC2CC(OC(=O)CC(O)CCCCCCCCCCC)C(NC(=O)CC(O)CCCCCCCCCCC)C(O)O2)OC(CO)C1OP(=O)(O)O.CCCCCCCCCCCCCCCCNC(=O)OC[C@@H]1C[C@@H](COC(=O)N(Cc2cccc[n+]2CC)C(C)=O)S1.[Cl-] (stereo unspecified) | – | – | – | 53 | 12.7 | – |
| CCCCCCCCCCCCCC(=O)OC(CCCCCCCCCCC)CC(=O)OC1C(NC(=O)CC(CCCCCCCCCCC)OC(=O)CCCCCCCCCCC)C(OC2CC(OC(=O)CC(O)CCCCCCCCCCC)C(NC(=O)CC(O)CCCCCCCCCCC)C(O)O2)OC(CO)C1OP(=O)(O)O.CCCCCCCCCCCCCCCCCCNC(=O)OC[C@H]1C[C@H](COC(=O)N(Cc2cccc[n+]2CC)C(C)=O)O1.[I-] (stereo unspecified) | – | – | – | 53 | 12.7 | – |
| CCCCCCCCCCCCCC(=O)OC(CCCCCCCCCCC)CC(=O)OC1C(NC(=O)CC(CCCCCCCCCCC)OC(=O)CCCCCCCCCCC)C(OC2CC(OC(=O)CC(O)CCCCCCCCCCC)C(NC(=O)CC(O)CCCCCCCCCCC)C(O)O2)OC(CO)C1OP(=O)(O)O (stereo unspecified) | – | – | – | 100 | 24 | – |
| C[C@@H]1C(=O)O[C@H]2C(O)[C@@]34[C@H]5C[C@@H](C(C)(C)C)[C@]36[C@@H](OC(=O)[C@@H]6O)O[C@@]4(C(=O)O5)[C@@]12O (single isomer, unassigned) [GINKOLIDE B] | – | – | – | – | – | IC50 [12]: 418 nM |
| CCCCCCCCCCCCCCCCCCNC(=O)OCC(COC(=O)N(Cc1cccc[n+]1CC)C(C)=O)OC.[Cl-] (stereo unspecified) [CV-6209] | 12 | 0.35 | 87 | 48 | – | – |
